Data: US20210330611A1, “THERAPY FOR NEUROLOGICAL DISEASES/DISORDERS” (priority 2020, published 2021)
Structures can show the parent of a compound that is named as a salt. Where two headings read alike, the source gives them in different places.

What was measured:
[1] = test system: fibrin- and LPS-induced microglia activation; experiment: cells; format: cell-based, rat; settings: quadrant by fibrin and LPS inhibition in HTS of 1907 compounds
[2] = test system: LPS-induced microglia activation; experiment: Image-based assay of LPS-induced microglia activation (HTS and dose response); format: cell-based, rat; settings: for inhibition at 10 µM: Rattus norvegicus, Microglia, 48 h, read-out: LPS % inhibition
primary rat microglia [3] = experiment: Cell toxicity (dead cells, size <150 μm2) in LPS assay; settings: primary microglia HTS, LPS stimulation
[4] = test system: fibrin-induced microglia activation; experiment: Image-based assay of fibrin-induced microglia activation (HTS and dose response); format: cell-based, rat; settings: for inhibition at 10 µM: Rattus norvegicus, Microglia, read-out: Fibrin % inhibition
primary rat microglia [5] = experiment: Cell toxicity (dead cells, size <150 μm2) in coated fibrin (cFib) assay; settings: primary microglia HTS, fibrin stimulation;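 further: share of dead cells sized under 150 µm2 at 10 µM in fibrin-stimulated microglia HTS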
[6] = primary microglia HTS, LPS stimulation, increased cell size (>800 μm^2) as marker of activation
[7] = decreased size (<150 μm^2) as marker of toxicity
[8] = primary microglia HTS, fibrin stimulation, increased cell size (>800 μm^2) as marker of activation
[9] = primary microglia HTS, LPS stimulation, activation = cell size >800 μm2
[10] = primary microglia HTS, fibrin stimulation, activation = cell size >800 μm2

Row | Structure (SMILES) | Quadrant (FIG. 5b) [1] | inhibition at 10 µM [2] [%] | LPS % cell toxicity (primary rat microglia [3]; toxicity = cell size <150 μm2) [%] | inhibition at 10 µM [4] [%] | Fibrin % cell toxicity (primary rat microglia [5]; toxicity = cell size <150 μm2) [%] | inhibition at 10 µM [2, 6] [%] | LPS % cell toxicity (primary rat microglia [3]; [7]) [%] | inhibition at 10 µM [4, 8] [%] | Fibrin % cell toxicity (primary rat microglia [5]; [7]) [%] | inhibition at 10 µM [2, 9] [%] | inhibition at 10 µM [4, 10] [%] | LPS % inhibition [2, 6] [%] | Fibrin % inhibition [4, 8] [%]
1 | Oc1c(Cl)cc(Cl)c(Cl)c1Cc1c(O)c(Cl)cc(Cl)c1Cl [Hexachlorophene] | Q4 | 15 | 0 | -19 | 0 | – | – | – | – | – | – | – | –
2 | C[N+](C)(C)CCCCCC[N+](C)(C)C [Hexamethonium] | Q2 | – | – | – | – | 100 | 2 | 108 | 9 | – | – | – | –
3 | C1N2CN3CN1CN(C2)C3 [Hexamethylenetetramine] | Q4 | – | 0 | – | 1 | – | – | – | – | 20 | -9 | – | –
4 | CC[C@H](c1ccc(O)cc1)[C@@H](CC)c1ccc(O)cc1 [Hexestrol] | Q4 | – | 0 | – | 1 | – | – | – | – | 7 | -29 | – | –
5 | CCCCC(CC)CN1CN(CC(CC)CCCC)CC(C)(N)C1 (stereo not shown) [Hexetidine] | Q4 | – | 0 | – | 1 | – | – | – | – | 19 | -85 | – | –
6 | CCCCCCc1ccc(O)cc1O [Hexylresorcinol] | Q4 | – | 0 | – | 1 | – | – | – | – | 18 | -6 | – | –
7 | C[N+]1(C)[C@@H]2CC[C@H]1C[C@@H](OC(=O)C(O)c1ccccc1)C2 (stereo partly shown) [Homatropine Methylbromide] | Q4 | – | 0 | – | 1 | – | – | – | – | 12 | -18 | – | –
8 | CC[n+]1c(-c2ccccc2)c2cc(N)ccc2c2ccc(N)cc21 [Homidium Bromide] | Q2 | – | – | – | – | 103 | 9 | 84 | 17 | – | – | – | –
9 | COC(=O)C[C@](O)(CCCC(C)(C)O)C(=O)O[C@@H]1C(OC)=C[C@]23CCCN2CCc2cc4c(cc2[C@H]13)OCO4 [Homoharringtonie] | Q2 | – | – | – | – | – | 67 | – | 90 | – | – | 106 | 106
10 | CN1CCc2cc3c(cc2C1O)OCO3 (stereo not shown) [Hydrastinine Hydrochloride] | Q4 | – | 0 | – | 1 | – | – | – | – | 22 | 0 | – | –
11 | NS(=O)(=O)c1cc2c(cc1Cl)NCNS2(=O)=O [Hydrochlorothiazide] | Q4 | – | 0 | – | 0 | – | – | – | – | 21 | -29 | – | –
